Assay results taken from PMC11481179, “Development and Application of Reversible and Irreversible Covalent Probes for Human and Mouse Cathepsin‐K Activity Detection, Revealing Nuclear Activity” (Advanced Science, 2024).

Columns and labels:
Test in all cases: Cell viability assay (methylene blue)
Conditions in all cases: 48 h incubation
[1] = test system: primary human osteoclasts (enriched monocytic cells); assay type: cell-based
Procedure: Figure 5 Labeling of endogenous cathepsin K in intact human osteoclast cells. Enriched human monocytes from PBMC were isolated from healthy donors’ blood, cells were treated with MCSF and RANKL or MCSF alone as indicated for 14 days. a–c) Osteoclasts were treated with vehicle (DMSO) or inhibitors ODN or GD30 [3 µM] in a culture medium for 2 h, followed by incubation with GD32 or GD42 for 8 h or GB123 for 2 h similar to as described in Figure 4. (a, b) Confocal fluorescent microscopy of GD32 and GB123 treated cells after fixation. c) Live cell imaging with GD42. d) SDS PAGE of the human osteoclasts and macrophages incubated with DMSO, ODN or GD30 [5 µM] followed by incubation with GD32 or GD42 [5 µM] for 8 h. e) The same gel was analyzed by western blot with an anti‐CTSK antibody. […] Red fluorescence marks cathepsin activity (ABPs) and blue fluorescence marks nucleus (DAPI). g–i) Cell viability assay. […] After 48 h incubation cells were fixed, and viability was measured by methylene blue. The data were expressed as a percentage of control; data represent the mean of two experiments with triplicates for each treatment (± Standard Deviation). […]
with 5µM GD32 for 24 h prior to the cell lysis. Cell lysates were prepared and analyzed as […]
analyzed as previously described. […]
After 48 h cells were fixed, and viability was measured by quantitative colorimetric assay using […]

[2] = test system: U-87 MG cells; assay type: cell-based, human
Procedure: (§1) U-2 OS, U-87 MG, and enriched monocyte cells were grown at 370 C with 5% of CO2 in the
(§2) respective medium as described previously. Cells were seeded (1500 cells/well in 96 wells
(§3) plate) one day before the incubation with indicated probe or inhibitor at various concentrations.
(§4) After 48 h cells were fixed, and viability was measured by quantitative colorimetric assay using
(§5) methylene blue according to the procedure reported by Ben-Bassat et al. The data were
(§6) expressed as a percentage of control; data represent the mean of 2 experiments with triplicates
(§7) for each treatment (± standard deviation).
(§8) Fluorescent imaging of CTSK activity in lung tissue: Freshly resected human lung cancer and
(§9) normal lung tissues or mouse normal lung and primary lung cancer were embedded in OCT,
(§10) frozen in liquid nitrogen, and kept at - 80° C. Tissues were sectioned into 10 μm thick slices
(§11) using a cryostat (Leica). The slides were defrosted and washed with 1X PBS. Then the slides
(§12) were pretreated with DMSO or GD30 (5 µM) in buffer acetate for 1 h at 37° C. Afterward,
(§13) GD32 (0.75uM) or DMSO in buffer acetate were applied to the slides for 4 h at 37° C. Three
(§14) short washes with 1X PBS were done and the slides were left in 1X PBS for overnight
(§15) incubation at 4° C. The next day, slides were mounted with DAPI-Fluoromount-G® before
(§16) visualization by confocal microscopy. Olympus FV10i was used for human samples, whereas
(§17) Zeiss was used for mouse samples.
(§18) Details of the synthesis of the compounds
(§19) Synthesis of Compound (2)

[3] = test system: U-2 OS cells; assay type: cell-based, human
Procedure: as §1, §2, §3, §4, §5, §6, §7, §8, §9, §10, §11, §12, §13, §14, §15, §16, §17, §18, §19

Measured: cytotoxicity

C#CCNC(=O)[C@H](CC(C)C)N[C@@H](c1ccc(-c2ccc(S(=O)(=O)CCNC(=O)OC(C)(C)C)cc2)cc1)C(F)(F)F [GD30]
No toxicity: [1] | [2] | [3]

C#CCNC(=O)[C@H](CC(C)C)N[C@@H](c1ccc(-c2ccc(S(=O)(=O)CCNC(=O)CCCCC[N+]3=C(/C=C/C=C/C=C4/N(C)c5ccc(S(=O)(=O)O)cc5C4(C)C)C(C)(C)c4cc(S(=O)(=O)O)ccc43)cc2)cc1)C(F)(F)F [GD32]
No toxicity: [1] | [2] | [3]
